Measured values from patent US9023320B2, “Method of producing a composition, composition and its use” (GE Healthcare AS, priority 2004, dated 2015).

How the values were obtained:
[1] = system: R3230AC rat mammary adenocarcinoma; test: Tumour imaging using hyperpolarised 13C-pyruvate as imaging agent (13C-MR imaging of tumour-bearing rats); assay type: in vivo
Experimental: R3230AC is a rat mammary adenocarcinoma that can be maintained in female Fischer 344 rats. To establish the animal tumour model, a frozen vial of R32030 cells containing RPMI 1640, 10% FBS and 10% DMSO was rapidly thawed in 37° C. Thereafter, the cell solution was transferred to FBS and increasing volumes of RPMI 1640 were added. Finally, the cell suspension was transferred to a 25 cm^2growth flask and put into an incubator at 37° C., 5% CO2. Growth media were changed every other day. At the day of rat infection, removal of cells was carried out either by mechanical force or by means of trypsin. Cells were washed using phosphate buffer lacking calcium and magnesium. Trypsin (0.05% trypsin in 0.02% EDTA) was added for 2-5 min. Then, 5 ml FBS was added and the cells were transferred into a beaker containing RPMI 1640 with FCS and antibiotics (100 IU/ml penicillin, 100 IU/ml streptomycin and 2.5 µg/ml amphotericin […]). The cell solution was centrifugated and the cell pellet was resuspended in 20 ml RPMI with FBS and antibiotics, centrifugation and resuspension was repeated. The cells were then aliquoted to vials containing 4×10^6 cells/ml RPMI 1640. To obtain donor tumours, female Fischer 344 rats (Charles River, 180-200 g) were anaesthetised and 0.3 ml of the cell suspension was subcutaneously injected in the inguinal region on both sides. 15 and 22 days later, pieces of tumour were prepared as described in F. A. Burgener et al., Invest Radiol 2216 (1987), 472-478; S. Saini et al., J. Magn. Reson, 129/1 (1997), 35-43). Two incisions were made on the ventral abdomen of recipient female Fischer rats. A tumour piece was inserted into each pocket and the incisions were closed. Rats were brought to imaging 12-14 days after tumour engrafting.
Weighed rats were anaesthetised using isoflurane (2-3%) and kept on a heated table to ensure a body temperature of about 37° C. A catheter was introduced into the tail vein and into the arteria carotis communis sinistra. The rats were transported to the MR machine and placed on a home-built pad that was heated to approx. 37° C. by means of circulating FC-104 Fluorinert. This liquid will not give rise to background signals in ^1H- and ^13C-MR imaging. Anaesthesia was continued by means of 1-2% isoflurane delivered via a long tube to an open-breathing system at a rate of 0.4 L/min. The arterial catheter was connected via a T-tube to a pressure recorder and a pump delivering saline (rate […]) to prevent catheter clotting. Rats were positioned in a rat MR coil (Rapid Biomedical, Germany) and imaging using a standard proton MR imaging sequence to get anatomical information and to determine the location of the tumour.
Based on the proton frequency found by the MR system the MR frequency for ^13C1-alanine was calculated according to the following equation: Frequency ^13C1-alanine=0.25144×[(system frequency proton×1.00021)−0.000397708]
The frequency calculated positioned the MR signal arising from ^13C1-alanine on resonance with ^13C1-lactate on the left and ^13C1-pyruvate resonating on the right of ^13C1-alanine. An unlocalised MR spectroscopy sequence was run to ensure that the ^13C-MR coil and the system MR frequency had been set up correctly. The ^13C-image location was positioned to cover the tumour (slice thickness 10 mm, in plane pixel size 5×5 mm^2). In the reconstruction phase, the image data was zero-filled to result in 2.5×2.5×10 mm^3 resolution. ^13C1-pyruvate in TRIS buffer (90 mM) was injected in a dose of 10 ml/kg during a period of 12 s with a minimum volume of 2 ml into the tail vein and 30 s after the start of the injection (i.e. 18 s after finishing the injection), the chemical shift ^13C-MR sequence was started. 5.4 Analysis of the MR Imaging Data
In the reconstruction phase, the matrix was zero-filled to 32×32, a mathematical operation that helps to improve the spatial resolution. […]

[2] = DNP polarisation of 13C1-pyruvic acid, solid-state 13C-NMR DNP enhancement; assay type: physicochemical; details: 20 mM Tris(8-carboxy-2,2,6,6-tetra(hydroxyethoxy)methyl-benzo[1,2-d:4,5-d']bis(1,3)dithiole-4-yl)methyl sodium salt; 1.2 K, 3.35 T, 93.950 GHz; from thermal equilibrium and enhanced NMR signal
Experimental: A 20 mM solution was prepared by dissolving Tris(8-carboxy-2,2,6,6-tetra(hydroxyethoxy)methyl-benzo[1,2-d:4,5-d′]-bis-(1,3)-dithiole-4-yl)methyl sodium salt in ^13C1-pyruvic acid (83.1 mg). The sample was mixed to homogeneity, placed in a sample cup and inserted in the DNP polariser. The sample was polarised under DNP conditions at 1.2 K in a 3.35 T magnetic field under irradiation with microwave (93.950 GHz). The ^13C-NMR signal from the sample was acquired using a Varian Inova-200 NMR spectrometer. The DNP enhancement was calculated from a measurement of the thermal equilibrium ^13C-NMR signal and the enhanced NMR signal. 16% ^13C polarisation was obtained.

[3] = rat, R3230AC tumours, 90 mM in TRIS, 10 ml/kg i.v. tail vein, imaging 30 s after start of injection

pH ([1]; injected solution, mean ±SD) | average polarisation at the time of injection ([1]; mean ±SD, solution in TRIS buffer injected into rats) | 13C polarisation [2] | SMILES | overall rate of success ([1]; discrimination of tumour and healthy tissue, 26 tumours in 17 rats) | metabolic contrast in the tumour area, lactate signal [1, 3] | metabolic contrast in the tumour area, lactate signal, alanine corrected [1, 3] | metabolic contrast in the tumour area, lactate signal, pyruvate corrected [1, 3]
8.08±0.14 | 21.2±2.9% | – | CC(=O)[13C](=O)[O-].[Na+] [^13C1-pyruvate, sodium ^13C1-pyruvate] | 100% | 24 out of 26 | 26 out of 26 | 26 out of 26
– | – | 16% | CC(=O)[13C](=O)O [^13C1-pyruvic acid] | – | – | – | –
